ChEMBL document CHEMBL3112545, “Gabapentin hybrid peptides and bioconjugates” (Bioorg Med Chem, 2014)
Calls of active or inactive are those of the source. The calls are words filed in the database; no cut-off is given here.

Key:
[1] = Stability of the compound in HCl-MeOH/HCl-1,4-dioxane/TFA-DCM assessed as release of gabapentin, S-nucleophile, 2-aza-spiro[4,5]decan-3-one; assay type: physicochemical; conditions: buffer
[2] = Stability of the compound assessed as intramolecular cyclization/decomposition measured over 12 months; assay type: physicochemical; conditions: 8766 h
Mus musculus [3] = assay: Toxicity in ip dosed SKH1-hrhr mouse assessed as mortality measured up to 3 hrs; assay type: organism-based; conditions: in vivo
Mus musculus [4] = assay: Toxicity in ip dosed SKH1-hrhr mouse assessed as change in reward licking events measured up to 3 hrs; assay type: organism-based; conditions: in vivo
[5] = Toxicity in mouse; assay type: organism-based; conditions: in vivo
[6] = Oral bioavailability in cynomolgus monkey at 39 mg/kg; assay type: ADME, organism-based, Macaca fascicularis; conditions: in vivo
[7] = Stability of the compound in HCl-MeOH/HCl-1,4-dioxane/TFA-DCM assessed as release of gabapentin, O-nucleophile, 2-aza-spiro[4,5]decan-3-one; assay type: physicochemical; conditions: buffer
[8] = Stability of the compound assessed as cyclization into tert-butyl 3-oxo-2-azaspiro[4.5]decane-2-carboxylate at room temperature measured over 12 months; assay type: physicochemical; conditions: 8766 h
Cynomolgus monkey = assay: Oral bioavailability in cynomolgus monkey assessed as gabapentin at 36 mg/kg; assay type: ADME, organism-based, Macaca fascicularis; conditions: in vivo
Mus musculus [9] = assay: Antinociceptive activity in ip dosed capsaicin-induced SKH1-hrhr mouse assessed change in reward licking events measured 30 mins post injection; assay type: functional, organism-based
Mus musculus [10] = assay: Toxicity in ip dosed capasaicin-induced SKH1-hrhr mouse assessed as mortality measured up to 3 hrs; assay type: organism-based; conditions: in vivo

CC(C)(C)OC(=O)NCC1(CC(=O)Sc2ccccc2)CCCCC1
Stability [1]: Unstable

CC(C)[C@H](NC(=O)OCc1ccccc1)C(=O)NCC1(CC(=O)O)CCCCC1
Stability [2]: Stable

Cl.NCC1(CC(=O)NCc2ccccc2)CCCCC1
Activity (Mus musculus [3]): Non-toxic
Activity (Mus musculus [4]): Non-toxic

COC(=O)[C@H](CSC(=O)CC1(CNC(=O)OC(C)(C)C)CCCCC1)NC(=O)[C@H](Cc1ccccc1)NC(=O)OCc1ccccc1
Stability [1]: Unstable

C[C@H](NC(=O)OCc1ccccc1)C(=O)NCC1(CC(=O)O)CCCCC1
Stability [2]: Stable

O=C1CC2(CCCCC2)CN1
LD50 [5]: 300 mg/kg

NCC1(CC(=O)O)CCCCC1 [GABAPENTIN]
Activity (Mus musculus [3]): Non-toxic
Activity (Mus musculus [4]): Non-toxic
bioavailability [6]: 25%
LD50 [5]: > 8000 mg/kg

CC(C)[C@H](N)C(=O)NCC1(CC(=O)O)CCCCC1
Stability [2]: Stable

C[C@H](NC(=O)CNC(=O)OCc1ccccc1)C(=O)NCCC(=O)NCC1(CC(=O)O)CCCCC1
Stability [2]: Stable

C[C@H](NC(=O)OC(C)(C)C)C(=O)N[C@@H](Cc1ccccc1)C(=O)NCC1(CC(=O)O)CCCCC1
Stability [2]: Stable

CC(C)[C@H]1CC[C@H](C)C[C@@H]1OC(=O)CC1(CNC(=O)OC(C)(C)C)CCCCC1
Stability [7]: Unstable
Stability [8]: Unstable

C[C@H](NC(=O)CN)C(=O)NCCC(=O)NCC1(CC(=O)O)CCCCC1
Stability [2]: Stable

CC(N)C(=O)NC(Cc1ccccc1)C(=O)NCC1(CC(=O)O)CCCCC1.Cl (racemic)
Stability [2]: Stable

CC(OC(=O)NCC1(CC(=O)O)CCCCC1)OC(=O)C(C)C (stereo not given) [GABAPENTIN ENACARBIL]
F (Cynomolgus monkey): 84%

CC(C)CCC[C@@H](C)[C@H]1CC[C@H]2[C@@H]3CC=C4C[C@@H](OC(=O)CC5(CNC(=O)OC(C)(C)C)CCCCC5)CC[C@]4(C)[C@H]3CC[C@]12C
Stability [7]: Unstable

C[C@H](N)C(=O)NCC1(CC(=O)O)CCCCC1
Activity (Mus musculus [9]): Active
Activity (Mus musculus [3]): Non-toxic
Activity (Mus musculus [4]): Non-toxic
Stability [2]: Stable
Activity (Mus musculus [10]): Non-toxic
